Laboratory results published in US11278530B2, “Polycyclic amides as muscarinic M1 receptor positive allosteric modulators” (SUVEN LIFE SCIENCES LIMITED, priority 2017, dated 2022).

Biological target: T1, recombinant human Muscarinic M1 receptor (Homo sapiens, UniProt P11229)
T1 sequence (P11229 1-460): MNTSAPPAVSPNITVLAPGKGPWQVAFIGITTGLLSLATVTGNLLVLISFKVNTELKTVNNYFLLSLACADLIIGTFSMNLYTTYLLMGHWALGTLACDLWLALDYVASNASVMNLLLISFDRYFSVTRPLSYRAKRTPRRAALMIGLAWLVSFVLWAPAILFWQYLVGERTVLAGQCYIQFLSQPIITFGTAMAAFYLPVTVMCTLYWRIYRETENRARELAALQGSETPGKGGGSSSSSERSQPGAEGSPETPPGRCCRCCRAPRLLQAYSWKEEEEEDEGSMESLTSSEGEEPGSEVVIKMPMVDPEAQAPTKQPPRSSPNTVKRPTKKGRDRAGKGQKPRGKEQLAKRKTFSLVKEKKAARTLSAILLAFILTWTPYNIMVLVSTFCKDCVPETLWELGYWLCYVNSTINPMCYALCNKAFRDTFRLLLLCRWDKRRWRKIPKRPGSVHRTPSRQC
Experiment: Allosteric potency EC50 for Muscarinic M1 receptor, CHO pCRE-Luc reporter cell-based assay with EC20 of acetylcholine
Conditions: CHO cells, human M1, luciferase reporter, in presence of EC20 of acetylcholine, 4 h
Procedure: Determination of allosteric potency EC50 values for Muscarinic M1 receptor:
A stable CHO cell line expressing recombinant human Muscarinic M1 receptor and pCRE-Luc reporter system was used for cell-based assay. The assay offers a non-radioactive based approach to determine binding of a compound to GPCRs. In this specific assay, the level of intracellular cyclic AMP which is modulated by activation or inhibition of the receptor is measured. The recombinant cells harbor luciferase reporter gene under the control of cAMP response element.
The above cells were grown in 96 well clear bottom white plates in Hams F12 medium containing 10% fetal bovine serum (FBS). Prior to the addition of compounds or standard agonist, cells were serum starved overnight. Increasing concentrations of test compounds were added along with EC20 of acetylcholine in OptiMEM medium to the cells. The incubation was continued at 37° C. in CO2 incubator for 4 h. Medium was removed and cells were washed with phosphate buffered saline. The cells were lysed and luciferase activity was measured in a Luminometer. Luminescence counts in each concentrations of test item were normalized to the acetylcholine induced maximum response and the data was analyzed using Graphpad software. EC50 values of the compounds were defined as the concentration required in stimulating the luciferase activity by 50% in presence of EC20 of acetylcholine.

| EC50 | SMILES |
| --- | --- |
| 798 nM | Cc1c(Cc2ccc(-c3cnn(C)c3)cc2)cc(C(=O)N[C@H]2CCCC[C@@H]2O)c2c1NCCO2 [Example 16, N-(cis-1S,2S-2-Hydroxycyclohexyl)-6-[4-(1-methyl-1H-pyrazol-4-yl)-benzyl]-5-methyl-3,4-dihydro-2H-benzo[1,4]oxazine-8-carboxamide] |
| 157 nM | Cc1c(Cc2ccc(-n3cccn3)cc2)cc(C(=O)N[C@H]2CCCC[C@@H]2O)c2ncccc12 [Example 10, N-(cis-1S,2S-2-Hydroxycyclohexyl)-6-(4-pyrazol-1-yl-benzyl)-5-methylquinoline-8-carboxamide] |
| 895 nM | Cc1nc2c(C(=O)N[C@H]3CCCC[C@@H]3O)cc(Cc3ccc(-c4cnn(C)c4)cc3)c(C)c2[nH]1 [Example 39, N-(cis-1S,2S-2-Hydroxycyclohexyl)-2,7-dimethyl-6-[4-(1-methyl-1H-pyrazol-4-yl)-benzyl]-1H-benzimidazole-4-carboxamide] |
| 597 nM | Cn1cc(-c2ccc(Cc3cc(C(=O)N[C@H]4CCCC[C@@H]4O)c4[nH]cnc4c3)c(F)c2F)cn1 [Example 37, N-(cis-1S,2S-2-Hydroxycyclohexyl)-6-[2,3-difluoro-4-(1-methyl-1H-pyrazol-4-yl)-benzyl]-1H-benzimidazole-4-carboxamide] |
| 694 nM | Cc1nc2c(C(=O)N[C@H]3CCCC[C@@H]3O)cc(Cc3ccc(-n4cccn4)cc3)c(C)c2[nH]1 [Example 38, N-(cis-1S,2S-2-Hydroxycyclohexyl)-2,7-dimethyl-6-(4-pyrazol-1-yl-benzyl)-1H-benzimidazole-4-carboxamide] |
| 10000 nM | Cc1c(Cc2ccc(-c3cscn3)cc2)cc(C(=O)N[C@@H]2CCCC[C@H]2O)c2c1ncn2C [Example 45, N-(cis-1S,2S-2-Hydroxycyclohexyl)-3,7-dimethyl-6-[4-(thiazol-4-yl)-benzyl]-3H-benzimidazole-4-carboxamide] |
| 2280 nM | Cc1c(Cc2ccc(F)c(F)c2)cc(C(=O)N[C@@H]2CCCC[C@H]2O)c2nc[nH]c12 [Example 34, N-(cis-1S,2S-2-Hydroxycyclohexyl)-7-methyl-6-[3,4-difluorobenzyl]-1H-benzimidazole-4-carboxamide] |
| 444 nM | Cn1cc(-c2ccc(Cc3cc(C(=O)N[C@H]4CCCC[C@@H]4O)c4nccn4c3)cc2)cn1 [Example 25, N-(cis-1S,2S-2-Hydroxycyclohexyl)-6-[4-(1-methyl-1H-pyrazol-4-yl)-benzyl]-imidazo[1,2-a]pyridine-8-carboxamide] |
| 516 nM | Cc1c(Cc2ccc(-c3cscn3)cc2)cc(C(=O)N[C@@H]2CCCC[C@H]2O)c2nc[nH]c12 [Example 32, N-(cis-1S,2S-2-Hydroxycyclohexyl)-7-methyl-6-[4-(thiazol-4-yl)-benzyl]-1H-benzimidazole-4-carboxamide] |
| 208 nM | Cc1c(Cc2ccc(-c3cnn(C)c3)nc2)cc(C(=O)N[C@@H]2CCCC[C@H]2O)c2c1ncn2C [Example 44, N-(cis-1S,2S-2-Hydroxycyclohexyl)-3,7-dimethyl-6-[6-(1-methyl-1H-pyrazol-4-yl)-pyridin-3-ylmethyl]-3H-benzimidazole-4-carboxamide] |
| 1500 nM | Cc1nc2c(C(=O)N[C@H]3CCCC[C@@H]3O)cc(Cc3ccc(-c4cscn4)cc3)c(C)c2[nH]1 [Example 40, N-(cis-1S,2S-2-Hydroxycyclohexyl)-2,7-dimethyl-6-(4-thiazol-4-yl-benzyl)-1H-benzimidazole-4-carboxamide] |
| 2340 nM | Cc1c(Cc2ccccc2F)cc(C(=O)N[C@H]2CCCC[C@@H]2O)c2ncccc12 [Example 5, N-(cis-1S,2S-2-Hydroxycyclohexyl)-6-(2-fluorobenzyl)-5-methylquinoline-8-carboxamide] |
| 299 nM | Cc1cc2c(C)c(Cc3ccc(-c4cnn(C)c4)cc3)cc(C(=O)N[C@H]3CCCC[C@@H]3O)c2o1 [Example 46, N-(cis-1S,2S-2-Hydroxycyclohexyl)-2,4-dimethyl-5-[4-(1-methyl-1H-pyrazol-4-yl)-benzyl]-benzofuran-7-carboxamide] |
| 3820 nM | O=C(N[C@H]1CCCC[C@@H]1O)c1cc(Cc2cccc(F)c2F)cn2ccnc12 [Example 22, N-(cis-1S,2S-2-Hydroxycyclohexyl)-6-(2.3-difluorobenzyl)-imidazo[1,2-a]pyridine-8-carboxamide] |
| 3340 nM | Cn1cc(-c2ccc(Cc3cc(C(=O)N[C@H]4CCCC[C@@H]4O)c4nccn4c3)c(F)c2)cn1 [Example 26, N-(cis-1S,2S-2-Hydroxycyclohexyl)-6-[2-fluoro-4-(1-methyl-1H-pyrazol-4-yl)-benzyl]-imidazo[1,2-a]pyridine-8-carboxamide] |
| 1240 nM | Cc1c(Cc2ccc(Cl)nc2)cc(C(=O)NC2CCOC[C@@H]2O)c2ncccc12 (stereo partly drawn) [Example 3, N-(cis-3S,4S-3-Hydroxytetrahydropyran-4-yl)-6-(2-chloropyridin-5-ylmethyl)-5-methylquinoline-8-carboxamide] |
| 449 nM | Cn1cc(-c2ccc(Cc3cc(C(=O)N[C@@H]4CCCC[C@H]4O)c4nc[nH]c4c3)cc2)cn1 [Example 29, N-(cis-1S,2S-2-Hydroxycyclohexyl)-6-[4-(1-methyl-1H-pyrazol-4-yl)-benzyl]-1H-benzimidazole-4-carboxamide] |
| 3660 nM | Cc1c(Cc2cccc(F)c2F)cc(C(=O)N[C@@H]2CCCC[C@H]2O)c2nc[nH]c12 [Example 33, N-(cis-1S,2S-2-Hydroxycyclohexyl)-7-methyl-6-[2,3-difluorobenzyl]-1H-benzimidazole-4-carboxamide] |
| 10000 nM | Cc1c(Cc2ccc(-c3cnn(C)c3)cc2)cc(C(=O)N[C@@H]2CCCC[C@H]2O)c2c1ncn2C [Example 42, N-(cis-1S,2S-2-Hydroxycyclohexyl)-3,7-dimethyl-6-[4-(1-methyl-1H-pyrazol-4-yl)-benzyl]-3H-benzimidazole-4-carboxamide] |
| 151 nM | Cc1c(Cc2ccc(-c3cnn(C)c3)cc2F)cc(C(=O)N[C@@H]2CCCC[C@H]2O)c2nc[nH]c12 [Example 30, N-(cis-1S,2S-2-Hydroxycyclohexyl)-7-methyl-6-[2-fluoro-4-(1-methyl-1H-pyrazol-4-yl)-benzyl]-1H-benzimidazole-4-carboxamide] |
| 1060 nM | Cc1c(Cc2ccc(-c3cnn(C)c3)cc2F)cc(C(=O)N[C@@H]2CCCC[C@H]2O)c2c1ncn2C [Example 41, N-(cis-1S,2S-2-Hydroxycyclohexyl)-3,7-dimethyl-6-[2-fluoro-4-(1-methyl-1H-pyrazol-4-yl)-benzyl]-3H-benzimidazole-4-carboxamide] |
| 232 nM | Cc1c(Cc2ccc(-c3cnn(C)c3)nc2)cc(C(=O)N[C@H]2CCCC[C@@H]2O)c2ncccc12 [Example 7, N-(cis-1S,2S-2-Hydroxycyclohexyl)-6-[2-(1-methyl-1H-pyrazol-4-yl)-pyridin-5-ylmethyl]-5-methylquinoline-8-carboxamide] |
| 28 nM | Cc1c(Cc2ccc(-c3cnn(C)c3)cc2F)cc(C(=O)N[C@H]2CCCC[C@@H]2O)c2nccn12 [Example 20, N-(cis-1S,2S-2-Hydroxycyclohexyl)-5-methyl-6-[2-fluoro-4-(1-methyl-1H-pyrazol-4-yl)-benzyl]-imidazo[1,2-a]pyridine-8-carboxamide] |
| 105 nM | Cc1c(Cc2ccc(-c3cnn(C)c3)cc2)cc(C(=O)N[C@H]2CCCC[C@@H]2O)c2nc[nH]c12 [Example 28, N-(cis-1S,2S-2-Hydroxycyclohexyl)-7-methyl-6-[4-(1-methyl-1H-pyrazol-4-yl)-benzyl]-1H-benzimidazole-4-carboxamide] |
| 237 nM | Cc1c(Cc2ccc(-c3cnn(C)c3)nc2)cc(C(=O)N[C@@H]2CCCC[C@H]2O)c2nc[nH]c12 [Example 35, N-(cis-1S,2S-2-Hydroxycyclohexyl)-7-methyl-6-[6-(1-methyl-1H-pyrazol-4-yl)-pyridin-3-ylmethyl]-1H-benzimidazole-4-carboxamide] |
| 308 nM | O=C(N[C@H]1CCCC[C@@H]1O)c1cc(Cc2ccc(-c3cscn3)cc2)cn2ccnc12 [Example 23, N-(cis-1S,2S-2-Hydroxycyclohexyl)-6-(4-thiazol-4-yl-benzyl)-imidazo[1,2-a]pyridine-8-carboxamide] |
| 249 nM | Cc1c(Cc2ccc(-c3cscn3)cc2)cc(C(=O)N[C@H]2CCOC[C@@H]2O)c2ncccc12 [Example 13, N-(cis-3S,4S-3-Hydroxytetrahydropyran-4-yl)-6-(4-thiazol-4-yl-benzyl)-5-methylquinoline-8-carboxamide] |
| 3910 nM | O=C(N[C@H]1CCCC[C@@H]1O)c1cc(Cc2ccc(-c3ccccc3)cc2)cn2ccnc12 [Example 24, N-(cis-1S,2S-2-Hydroxycyclohexyl)-6-(4-phenyl-benzyl)-imidazo[1,2-a]pyridine-8-carboxamide] |
